For nine compounds, GI50 and TGI results are on record in PubChem BioAssay (NCI).

Among the test systems are 786-0 renal; EKVX NSCLC; HT29 colon; OVCAR-4 ovarian; RPMI-8226 leukemia; RXF 393 renal; SK-MEL-28 melanoma; SW-620 colon; U251 CNS; UACC-257 melanoma.
Holding throughout (assay): NCI-60 cell line screen, 48 h

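All cell lines were grown in 96-well plates and treated with compound for 48 hours. At the GI50, growth is halved. TGI marks complete inhibition of growth.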

For `CCCCCCCCCCCCCCCc1cc(O)ccc1N`, the GI50 was 2.77 µM in the assay on 786-0 renal; more than 50.6 µM in the assay with EKVX NSCLC; more than 100 µM in the assay on HT29 colon; 1.23 µM in the assay on OVCAR-4 ovarian; 0.18 µM in the assay with RPMI-8226 leukemia; 18.5 µM in the assay with RXF 393 renal. For the same compound, the GI50 was more than 67.3 µM in the assay on SK-MEL-28 melanoma, more than 100 µM in the assay with SW-620 colon, more than 80.2 µM in the assay with U251 CNS and 11.3 µM in the assay on UACC-257 melanoma. Further, the TGI was 37.2 µM with 786-0 renal; more than 100 µM with EKVX NSCLC; more than 100 µM in the assay on HT29 colon; 3.77 µM in the assay on OVCAR-4 ovarian; 18.8 µM in the assay with RPMI-8226 leukemia; more than 84.6 µM with RXF 393 renal. Moreover, the TGI in the assay with SK-MEL-28 melanoma is more than 100 µM; in the assay on SW-620 colon it was more than 100 µM; in the assay on U251 CNS, more than 100 µM; in the assay with UACC-257 melanoma, more than 80.1 µM.

For `CN1CCN(c2ccc3c4c(cccc24)C(=O)N(CCN2CCN(CCCN4CCN(CCN5C(=O)c6cccc7c(N8CCN(C)CC8)ccc(c67)C5=O)CC4)CC2)C3=O)CC1`, the GI50 is 1.79 µM in the assay on 786-0 renal; 8.16 µM in the assay on EKVX NSCLC; 1.13 µM in the assay on HT29 colon; 8.01 µM with OVCAR-4 ovarian; 0.861 µM with RPMI-8226 leukemia; 5.4 µM in the assay with RXF 393 renal. Also, the GI50 was 9.37 µM in the assay with SK-MEL-28 melanoma, 1.59 µM with SW-620 colon, 7.43 µM with U251 CNS and 10.2 µM in the assay on UACC-257 melanoma. Also, the TGI amounted to 6.87 µM with 786-0 renal; 17.3 µM in the assay with EKVX NSCLC; 4.31 µM in the assay with HT29 colon; 19.4 µM in the assay with OVCAR-4 ovarian; 1.89 µM with RPMI-8226 leukemia; 12 µM in the assay on RXF 393 renal. Also, the TGI in the assay on SK-MEL-28 melanoma was 17.1 µM; with SW-620 colon, 50 µM; in the assay with U251 CNS it was 14.3 µM; in the assay with UACC-257 melanoma it was 18.4 µM.

Turning to `O=[N+]([O-])c1ccccc1N=Nc1c(O)[nH]c2ccccc12`, the TGI in the assay with 786-0 renal is 36.1 µM; with EKVX NSCLC it was 97.6 µM; in the assay on HT29 colon, more than 100 µM; in the assay on OVCAR-4 ovarian, more than 61.1 µM; in the assay on RPMI-8226 leukemia it was more than 100 µM; in the assay with RXF 393 renal it was more than 74.9 µM. Besides, the TGI in the assay on SK-MEL-28 melanoma was more than 100 µM; in the assay with SW-620 colon, more than 100 µM; with U251 CNS, more than 58.2 µM; with UACC-257 melanoma, more than 100 µM.

On to `CCOC(=O)/N=C(\N)SCc1ccccc1`, for which the TGI in the assay with 786-0 renal, with EKVX NSCLC, in the assay on HT29 colon, in the assay with OVCAR-4 ovarian, in the assay with RPMI-8226 leukemia and in the assay with RXF 393 renal was more than 100 µM throughout. Moreover, the TGI in the assay with SK-MEL-28 melanoma, in the assay on SW-620 colon, in the assay with U251 CNS and in the assay on UACC-257 melanoma was more than 100 µM in each case.

For the compound `CCCN(CCC)c1ccc(CO)c(C)c1`, the GI50 with 786-0 renal is more than 100 µM; with EKVX NSCLC, 28.4 µM; in the assay with HT29 colon it was 90.2 µM; with OVCAR-4 ovarian it was 11.3 µM; in the assay with RPMI-8226 leukemia, 18.4 µM; in the assay on RXF 393 renal, 22.2 µM. For the same compound, the GI50 is more than 100 µM in the assay with SK-MEL-28 melanoma, more than 100 µM in the assay with SW-620 colon, 74 µM in the assay on U251 CNS and 11.6 µM in the assay with UACC-257 melanoma. In addition, the TGI was more than 100 µM with 786-0 renal; more than 100 µM in the assay on EKVX NSCLC; more than 100 µM in the assay on HT29 colon; 25.3 µM with OVCAR-4 ovarian; 50 µM with RPMI-8226 leukemia; more than 100 µM in the assay with RXF 393 renal. Further, the TGI was more than 100 µM in the assay with SK-MEL-28 melanoma, more than 100 µM in the assay with SW-620 colon, more than 100 µM in the assay on U251 CNS and 67.3 µM in the assay with UACC-257 melanoma.

In the case of `CC(ONC(=O)c1cc(C(F)(F)F)cc(C(F)(F)F)c1)C(=O)Nc1ccc(Cl)cc1` (stereo not given), the GI50 in the assay with 786-0 renal is 5.61 µM; in the assay with EKVX NSCLC it was 4.46 µM; in the assay with HT29 colon, 5.92 µM; with OVCAR-4 ovarian, 4.64 µM; with RPMI-8226 leukemia, 2.27 µM; in the assay on RXF 393 renal, 5.95 µM. Besides, the GI50 with SK-MEL-28 melanoma is 5.4 µM; in the assay with SW-620 colon, 5.64 µM; in the assay on U251 CNS, 4.61 µM; in the assay with UACC-257 melanoma it was 3.83 µM. The TGI with 786-0 renal was 22 µM; with EKVX NSCLC it was more than 63 µM; with HT29 colon, 27.2 µM; with OVCAR-4 ovarian, more than 100 µM; in the assay on RPMI-8226 leukemia it was 6.98 µM; with RXF 393 renal it was 35.6 µM. Moreover, the TGI in the assay on SK-MEL-28 melanoma is 37.4 µM; with SW-620 colon it was 23.7 µM; in the assay on U251 CNS, more than 50.5 µM; with UACC-257 melanoma, 20.1 µM.

In the case of `O=c1ccccc2cccc(O)c12`, the TGI in the assay with 786-0 renal, with EKVX NSCLC, with HT29 colon, with OVCAR-4 ovarian, in the assay with RPMI-8226 leukemia and in the assay with RXF 393 renal was more than 100 µM each time. The TGI with SK-MEL-28 melanoma, in the assay with SW-620 colon, in the assay with U251 CNS and in the assay on UACC-257 melanoma was more than 100 µM throughout.

Turning to `O=C1c2ccccc2C(=O)N1c1ccc(S(=O)(=O)Nc2ncccn2)cc1`, the GI50 with 786-0 renal, in the assay on EKVX NSCLC, in the assay on HT29 colon, in the assay on OVCAR-4 ovarian, with RPMI-8226 leukemia and in the assay with RXF 393 renal was more than 100 µM in each case. In addition, the GI50 in the assay with SK-MEL-28 melanoma, in the assay with SW-620 colon, with U251 CNS and in the assay with UACC-257 melanoma was more than 100 µM throughout. Also, the TGI in the assay on 786-0 renal, in the assay on EKVX NSCLC, in the assay with HT29 colon, in the assay on OVCAR-4 ovarian, in the assay on RPMI-8226 leukemia and in the assay with RXF 393 renal was more than 100 µM throughout. Besides, the TGI in the assay on SK-MEL-28 melanoma, in the assay on SW-620 colon, with U251 CNS and in the assay with UACC-257 melanoma was more than 100 µM in each case.

For the compound `COc1ccc(C(O)CNC(=O)c2ccccc2)cc1` (stereo not given), the TGI in the assay with 786-0 renal, with EKVX NSCLC, in the assay with HT29 colon, in the assay with OVCAR-4 ovarian, in the assay with RPMI-8226 leukemia and in the assay on RXF 393 renal was more than 100 µM each time. The TGI in the assay on SK-MEL-28 melanoma, in the assay with SW-620 colon, in the assay on U251 CNS and in the assay with UACC-257 melanoma was more than 100 µM in each case.
